Where two headings read alike, the source gives them in different places.
Tests used:
[1] = target: T1, D-3 receptor expressed in CHO cells (Rattus norvegicus, UniProt P19020); assay: Inhibition of 125I-iodosulpride binding to membranes of transfected CHO cells (D-3); settings: for Ratio Ki D-2/Ki D-3: D-2 and D-3 receptors expressed in CHO cells
T1 construct: expressed in transfected cells
Source text: (§1) As far as the measurement of the affinity of the agonists or antagonists towards the polypeptides of the invention is concerned, it may be made under the following conditions:
(§2) The terms agonists and antagonists refer to the actions of the medicines on the D-2 receptors.
(§3) The β2 adrenergic receptor is excised from pSV β2 -MDH by digestions with HindIII and EcoRI and replaced by a SmaI-EcoRI restriction fragment of the clone of the D-2A receptor by using a blunt-ended HindIII nucleotide adaptor leading to the plasmid pSV D-2. The vector needed to express the D-3 receptor is obtained by replacing the HindIII-BglII restriction fragment of pSV D-2 by a EcoRI-BglII restriction fragment of the clone RT-PCR B, by using a HindIII-EcoRI oligonucleotide adaptor leading to the plasmid pSV D-3. […] The stable transfectants are selected in a culture medium (Dulbecco's Modified Eagle medium) not containing hypoxanthine and thymidine.

[2] = target: T2, D-2 receptor expressed in CHO cells (Rattus norvegicus, UniProt P61169); assay: Inhibition of 125I-iodosulpride binding to membranes of transfected CHO cells (D-2); settings: for Kd: saturation kinetics at equilibrium, permanently transfected CHO cells
T2 construct: expressed in transfected cells
Source text: as §1, §2, §3

D-2 receptor = assay: 7 OHDPAT-3H specific binding to membranes of CHO cells expressing the D-2 receptor; parameters: species or system rat; settings: increasing concentrations of radioligand
[3] = competition with 125I-iodosulpride, CHO cell membranes, mean ± standard deviation, 2-3 experiments, read-out: Ki Value D-3 receptor
[4] = competition with 125I-iodosulpride, CHO cell membranes, mean ± standard deviation, 2-3 experiments, read-out: Ki Value D-2 receptor

T1 sequence (P19020 whole entry): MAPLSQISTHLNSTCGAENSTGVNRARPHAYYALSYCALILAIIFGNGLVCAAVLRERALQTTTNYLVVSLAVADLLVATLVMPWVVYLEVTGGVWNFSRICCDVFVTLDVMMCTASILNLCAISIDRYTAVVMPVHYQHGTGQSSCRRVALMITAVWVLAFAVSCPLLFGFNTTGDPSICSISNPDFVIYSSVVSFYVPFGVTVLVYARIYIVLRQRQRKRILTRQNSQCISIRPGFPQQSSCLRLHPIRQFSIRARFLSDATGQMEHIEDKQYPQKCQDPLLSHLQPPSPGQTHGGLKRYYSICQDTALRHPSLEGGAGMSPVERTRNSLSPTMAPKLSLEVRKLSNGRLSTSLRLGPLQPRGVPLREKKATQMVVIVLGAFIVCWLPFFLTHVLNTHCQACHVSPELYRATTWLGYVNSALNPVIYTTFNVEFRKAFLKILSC
T2 sequence (P61169 whole entry): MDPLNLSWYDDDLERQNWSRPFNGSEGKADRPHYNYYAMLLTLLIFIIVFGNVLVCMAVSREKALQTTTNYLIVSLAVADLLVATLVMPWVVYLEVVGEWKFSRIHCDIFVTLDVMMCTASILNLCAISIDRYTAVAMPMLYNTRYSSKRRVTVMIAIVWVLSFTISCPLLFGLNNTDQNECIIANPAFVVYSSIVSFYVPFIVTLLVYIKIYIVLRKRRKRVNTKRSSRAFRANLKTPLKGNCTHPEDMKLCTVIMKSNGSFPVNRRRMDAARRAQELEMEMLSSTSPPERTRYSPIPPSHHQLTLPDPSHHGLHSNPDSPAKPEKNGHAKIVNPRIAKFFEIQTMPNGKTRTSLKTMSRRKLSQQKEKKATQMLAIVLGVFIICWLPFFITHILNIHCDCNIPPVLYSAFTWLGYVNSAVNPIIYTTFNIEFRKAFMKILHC

Compound | Comparison of affinities for D-2 and D-3 receptors (in words) [1] | Ki [1, 3] | Ratio Ki D-2/Ki D-3 [1] | also measured
Oc1cc2c(cc1O)C(c1ccccc1)CNCC2 (stereo not drawn) [SKF 38393] | – | – | – | Ki [1]: 5000 nM
NCCc1ccc(O)c(O)c1 [Dopamine] | – | – | – | Effect of Gpp(NH)p on displacement curve, D-2 receptor ([2]; presence of Gpp(NH)p): shifted to the right
CCCN1C[C@H](CSC)C[C@@H]2c3cccc4[nH]cc(c34)C[C@H]21 [Pergolide] | much less affinity for the D-3 receptor than for the D-2 receptor | – | – | –
CCN1CCC[C@H]1CNC(=O)c1c(O)c(Cl)cc(Cl)c1OC [Raclopride] | – | 3.5 ± 0.3 nM | – | –
CN(C)C1CCc2cc(O)c(O)cc2C1 (stereo not drawn) [TL 99] | much less affinity for the D-3 receptor than for the D-2 receptor | – | – | –
Iodosulpride | – | – | 0.52 | Kd ([1]; saturation kinetics at equilibrium, permanently transfected CHO cells): 1.2 ± 0.2 nM; Kd [2]: 0.61 ± 0.05 nM; Kd ([2]; listed as 125 I-iodosulpride): 0.6 nM
CN1CCc2cccc3c2[C@H]1Cc1ccc(O)c(O)c1-3 [Apomorphine] | – | – | – | Ki ([1]; read-out: Ki Value D-3 receptor): 20 ± 3 nM
CC(C)C[C@H]1C(=O)N2CCC[C@H]2[C@]2(O)O[C@](NC(=O)[C@@H]3C=C4c5cccc6[nH]c(Br)c(c56)C[C@H]4N(C)C3)(C(C)C)C(=O)N12 [Bromocriptine] | – | 7.4 ± 1.3 nM | 0.7 | Ki [2, 4]: 5.3 ± 0.6 nM
CCCN(CCC)[C@@H]1CCc2c(OC)cccc2[C@@H]1C [(+)UH 232] | somewhat but significantly higher affinities for the D-3 receptor than the D-2 receptor | – | 4.4 | Ki [1]: 9.2 ± 0.1 nM; Ki [2]: 40 ± 1 nM
CN1CCN(CCCN2c3ccccc3Sc3ccc(S(=O)(=O)N(C)C)cc32)CC1 [Thioproperazine] | – | 1.7 ± 0.1 nM | – | Ki [2, 4]: 0.21 ± 0.01 nM
CCCN[C@@H]1CCc2c(OC)cccc2[C@@H]1C [(+)AJ 76] | somewhat but significantly higher affinities for the D-3 receptor than the D-2 receptor | 91 ± 5 nM | 3.0 | Ki [2]: 270 ± 14 nM
CCCN(CCC)C1CCc2ccc(O)cc2C1 (stereo not drawn) [7 OHDPAT-^3 H, 7-hydroxy N,N'-dipropylaminotetraline radiolabelled with tritium] | – | – | – | Binding to membranes of cells expressing the D-2 receptor (D-2 receptor): only very slightly

Reference: patent US5407823A, “Polypeptides having a dopaminergic receptor activity, nucleic acids coding for these polypeptides and use of these polypeptides for the screening of substances active on these polypeptides” (priority 1990, dated 1995)
